In assay [1] the target is EpCAM (epithelial cell adhesion molecule), full-length (human) (UniProt P16422). The assay can be described thus: cell-based or functional assay.
Assay [2] deals with TCF/Lef-responsive promoters in HEK293 cells. Format: cell-based, human.
Assay [3] relates to NIH3T3 transfectants that ectopically express EpCAM. Put plainly: EpCAM-mediated growth transformation (cell numbers), NIH3T3 transfectants ectopically expressing EpCAM. It counts as cell-based, murine. As to the method:
(§1) We further investigated the significance of PS activity on EpCAM-mediated growth transformation of two cell types. Murine NIH3T3 transfectants (which were grown and transfected as described in Example 1) that ectopically express EpCAM, and FaDu carcinoma cells that naturally express EpCAM were treated with the DAPT over 4 days. […] Noteworthy, besides its capacity to rescue cells from DAPT-mediated growth inhibition, the expression of EpIC-YFP did even further increase proliferation of EpCAM-expressing FaDu carcinoma cells.

In a further assay the test system is FaDu carcinoma cells. Put plainly: Proliferation (cell numbers) of FaDu carcinoma cells. It counts as cell-based, human. The protocol: as §1, with “cells. Also, siRNA-mediated TACE reduction of proliferation of FaDu cells was tested. […] Modest effects may be explained by the comparatively low transfection efficiency of this cell line (FIG. 3A).” for “cells.”
Assay [4] relates to EpCAM-negative NIH3T3 control cells. Put plainly: Proliferation of EpCAM-negative NIH3T3 control cells. It counts as cell-based, murine. The following applies: treatment with DAPT. As to the method:
as §1

Assay [5] has as its system EpCAM-YFP cleavage in HEK293 cells. The assay can be described thus: EpIC formation (EpCAM cleavage) by immunoblot in HEK293 cells transiently transfected with EpCAM-YFP. It counts as cell-based, human. The following applies: for EpIC cleavage / release of EpIC-YFP from EpCAM-YFP: single cells incubated with recombinant EpEX, monitored over time. The text has this: In the beginning of the study nothing was known about the molecular mechanisms underlying the signalling mechanisms of EpCAM. In order to test for potential EpCAM cleavage, full-length EpCAM was C-terminally fused to the yellow fluorescence protein to generate EpCAM-YFP. Similarly, a potential intracellular domain of EpCAM (EpIC), starting with serine^289, was fused to the YFP moiety to generate EpIC-YFP. For this purpose, EpCAM or EpIC cDNA sequences were cloned into peYFP-N1 (BD Biosciences, Heidelberg Germany). […] HEK293 cells are human embryonic kidney cells, which were cultured in standard DMEM containing 10% fetal calf serum and passaged three times per week. Transfection was carried out with MATra reagent (IBA, Göttingen, Germany) in six-well plates (5×10^5 cells/well) according to the manufacturer's protocol. One microgram of plasmid DNA was transfected per sample for a time period of 24 h. For immunoblot analysis, 1×10^6 cells were lysed in 100 μl lysis buffer (TBS/1% triton and protease inhibitors). Lysates were pre-cleared upon centrifugation (13.000 rpm, 4° C., 10 min), separated upon SDS-PAGE, and transferred onto PVDF membranes (Millipore, Bedford, US). The expression of both proteins was assessed upon immunobloting with EpIC- (A20 or 1144, which are α-EpIC antibodies; Santa Cruz Biotech, USA and Epitomics, USA) and YFP-specific antibodies in combination with horseradish peroxidase (HRP)-conjugated secondary antibodies and the ECL reagent (Amersham Biosciences).
The interaction of EpCAM with PS-2 and TACE indicates an involvement of these proteases in the proteolytic processing of EpCAM. To confirm this, HEK293 cells were transiently transfected with EpCAM-YFP expression plasmid. Briefly, 5×10^5 cells were plated in 6-well plates and transiently transfected 24 h later with 1 μg plasmid DNA using the MATra transfection reagent (IBA, Göttingen, Germany—1 μl reagent per 1 μg DNA). Transiently transfected HEK293 cells were treated with 60 nM of the γ-secretase inhibitor Compound E (Alexis Biochemicals, Germany) over a time period of two days. Proteins were separated by SDS-PAGE (30 mA/gel, 10% polyacrylamid gel), transferred onto PVDF membranes (Millipore, Bedford, US). Cleavage of EpIC was assessed with an EpIC-specific antibody (1144, Epitomics, USA) in a time kinetic. Treatment of transfected cells with compound E led to the reduced formation of EpIC along with the accumulation of intermediate cleavage products of EpCAM with a molecular weight of 33-37 kDa (FIG. 2C). These intermediates most likely represent EpCAM molecules lacking the ectodomain but which were not cleaved at the intracellular site. […] Thus, inhibition of presenilins has an impact on EpCAM signaling capacity.
(§2) Next, HEK293 cells were transiently transfected with EpCAM-YFP, treated with 40 μM TACE inhibitor TAPI-2 (Biomol, Germany) and EpIC formation monitored as described above for the inhibition of presenilin-2. […] Finally, the effect of TACE inhibition on the generation of the EpCAM ectodomain was assessed. HEK293-EpCAM cells were cultured two days in the presence or absence of TAPI-2 (40 μM) and cell-free conditioned supernatants were collected upon centrifugation (13,000 rpm, 10 min, 4° C.). Thereafter, immunoprecipitations were conducted with antibodies specific for EpEX as described above. […] In all cases, EpEX was devoid of the EpIC domain as it no longer reacted with the EpIC-specific antibody. […]
(In general: Immunoblotting shows a protein as a band on a membrane.)

Assay [6] concerns EpCAM ectodomain (EpEX) shedding in HEK293-EpCAM cells. Put plainly: EpCAM ectodomain shedding, immunoprecipitation from conditioned supernatant of HEK293-EpCAM cells. The settings on record: TAPI-2 40 μM, two days, versus vehicle diluent. Format: cell-based, human. As to the method:
In a next step, we assessed the existence of a shed ectodomain of EpCAM. Immunoprecipitation was performed with conditioned cell-free supernatants of HEK293-EpCAM and HEK293-control transfectants using antibodies specific for the extracellular (EpEC), i.e. HO.3 (an α-EpEC antibody; kind gift from Dr. Horst Lindhofer, TrionPharma, Munich, Germany) and intracellular (EpIC) domain of EpCAM (see above) essentially as described above. For a positive control, immunoprecipitation was performed in parallel with whole cell lysate of HEK293-EpCAM cells.
as §2

Assay [7] relates to EpEX shedding in FaDu cells. Put plainly: EpEX shedding by FaDu cells expressing endogenous EpCAM. The following applies: treated with TAPI-2. It counts as cell-based, human. As to the method: The soluble ectodomain EpEX was detected in cell-free supernatants FaDu cells (Experiment was carried out as described for HEK293 cells).
Next, HEK293 cells were transiently transfected with EpCAM-YFP, treated with 40 μM TACE inhibitor TAPI-2 (Biomol, Germany) and EpIC formation monitored as described above for the inhibition of presenilin-2. […] Finally, the effect of TACE inhibition on the generation of the EpCAM ectodomain was assessed. HEK293-EpCAM cells were cultured two days in the presence or absence of TAPI-2 (40 μM) and cell-free conditioned supernatants were collected upon centrifugation (13,000 rpm, 10 min, 4° C.). Thereafter, immunoprecipitations were conducted with antibodies specific for EpEX as described above. […] In all cases, EpEX was devoid of the EpIC domain as it no longer reacted with the EpIC-specific antibody. Ectodomain shedding may thus be a basic requirement for the cleavage of EpIC, as is the case for certain other receptors (Medina and Dotti, 2003, Cell Signal 15: 829-841).

The subject of assay [8] is endogenous EpCAM in FaDu cells. The assay can be described thus: EpIC retention in the plasma membrane of isolated FaDu cells treated with EpEX. It counts as cell-based, human. The protocol: In search for inducers of EpCAM signaling, we investigated the possibility that EpEX serves as a soluble ligand for EpCAM. EpCAM was described as a homophilic adhesion molecule, which can confer intra- and intercellular adhesion via two distinct, cystein-rich extracellular domains. […] HEK293 cells were plated as single cells, transfected with EpCAM-YFP expression vector, and incubated with recombinant EpEX. EpIC formation was then monitored over time by immunoblotting (see above). […] This observation was further corroborated in carcinoma cells with respect to the cleavage of endogenous EpCAM molecules. […] In the absence of EpEX in the culture medium, a mean of 74% of single cells retained EpIC in the plasma membrane, while only 39% of the cells did so following treatment with EpEX.

The target of assay [9] is T1, EpCAM (epithelial cell adhesion molecule), full-length (human, UniProt P16422 24-314).
T1 sequence (looked up): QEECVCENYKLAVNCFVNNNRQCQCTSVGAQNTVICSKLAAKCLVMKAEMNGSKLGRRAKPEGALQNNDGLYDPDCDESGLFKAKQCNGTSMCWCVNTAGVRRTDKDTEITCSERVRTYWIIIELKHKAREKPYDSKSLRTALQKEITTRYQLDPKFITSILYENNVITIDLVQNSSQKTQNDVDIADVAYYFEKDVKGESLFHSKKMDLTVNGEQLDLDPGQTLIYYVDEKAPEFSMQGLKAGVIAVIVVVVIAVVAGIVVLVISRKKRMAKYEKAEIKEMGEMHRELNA
Put plainly: cell-based or functional assay.

Setting [10] is: DAPT over 4 days, data not shown.
Setting [11] is: DAPT plus EpIC-YFP expression (rescue).

In assay [1], “recombinant EpCAM extracellular domain EpEX (EpEXrec) (from UniProt P16422 24-265) (ligand)” registered a single FaDu cells retaining EpIC in the plasma membrane, following treatment with EpEX of 39% and a single FaDu cells retaining EpIC in the plasma membrane, in the absence of EpEX (control) of 74%.
`[Cl-].[Li+]` [lithium chloride]: in assay [2], the “mean induction of TCF/Lef” value worked out at 2.5 fold.
For the molecule `C[C@H](NC(=O)Cc1cc(F)cc(F)c1)C(=O)N[C@H](C(=O)OC(C)(C)C)c1ccccc1` [DAPT, N—[N-(3,5-difluorophenacetyl)-L-alanyl]-(S)-phenyl-glycine t-butyl ester], the “EpCAM-mediated growth transformation (cell numbers)” value (in assay [3] (setting [10]); in the assay on FaDu carcinoma cells (setting [10])) was “substantially inhibited” each time. Further, the “cell numbers under DAPT with expression of EpIC-YFP” value (in assay [3] (setting [11]); with FaDu carcinoma cells (setting [11])) was “restored cell numbers to the level of untreated cells” throughout. Moreover, the cell proliferation result in assay [4] is “remained unaffected”.
On to `CC(C)C[C@H](CC(=O)NO)C(=O)N[C@H](C(=O)N[C@@H](C)C(=O)NCCN)C(C)(C)C` [TAPI-2], for which, in [5] (40 μM TAPI-2), the EpIC cleavage entry was “substantial reduction of EpIC cleavage”, the c-Myc induction entry is “decrease in c-Myc induction” and the “formation of EpCAM intermediates” value is recorded as “no effect whatsoever”. Besides, in assay [6], the “ectodomain shedding in the cell culture supernatant” value is on record as “strong reduction of ectodomain shedding”. The EpEX shedding result in assay [7] is on record as “significant reduction of EpEX shedding”.

B1: EpEXrec: recombinant EpCAM extracellular domain EpEX (protein)
chain: QEECVCENYKLAVNCFVNNNRQCQCTSVGAQNTVICSKLAAKCLVMKAEMNGSKLGRRAKPEGALQNNDGLYDPDCDESGLFKAKQCNGTSMCWCVNTAGVRRTDKDTEITCSERVRTYWIIIELKHKAREKPYDSKSLRTALQKEITTRYQLDPKFITSILYENNVITIDLVQNSSQKTQNDVDIADVAYYFEKDVKGESLFHSKKMDLTVNGEQLDLDPGQTLIYYVDEKAPEFSMQGLK
On to B1, for which the “EpIC cleavage / release of EpIC-YFP from EpCAM-YFP” value in assay [5] is listed as “time-dependent induction of EpIC cleavage”. The “single cells that retained EpIC in the plasma membrane (mean)” value in assay [8] (after treatment with EpEX, 74% in the absence of EpEX) was 39%. Further, the “EpIC immunoreactivity at the site of the plasma membrane” value in assay [8] (isolated FaDu cells treated with EpEX) is “significant loss”.

B2: heat-treated EpEX: heat-treated recombinant EpCAM ectodomain, used as inactive control (protein, UniProt P16422 24-265, looked up)
extracellular domain: B1 chain
modifications: extracellular domain heat-treated
Regarding B2, the “EpIC cleavage / release of EpIC-YFP from EpCAM-YFP” value in [5] is listed as “did not result in a release of EpIC-YFP”.

B3: four and a half LIM domain protein FHL2 (other, human, UniProt Q14192 1-279, looked up)
chain: MTERFDCHHCNESLFGKKYILREESPYCVVCFETLFANTCEECGKPIGCDCKDLSYKDRHWHEACFHCSQCRNSLVDKPFAAKEDQLLCTDCYSNEYSSKCQECKKTIMPGTRKMEYKGSSWHETCFICHRCQQPIGTKSFIPKDNQNFCVPCYEKQHAMQCVQCKKPITTGGVTYREQPWHKECFVCTACRKQLSGQRFTARDDFAYCLNCFCDLYAKKCAGCTNPISGLGGTKYISFEERQWHNDCFNCKKCSLSLVGRGFLTERDDILCPDCGKDI
B3: the “cell numbers at day five of treatment with EpCAM- or FHL2-specific siRNA against control siRNA” value in [9] is 2.5 fold lower.

Values taken from patent US20100226922A1, “SPECIFIC PROTEASE INHIBITORS AND THEIR USE IN CANCER THERAPY” (priority 2006, published 2010).
